{"source": "patent US8685974B2", "about": "(Bayer CropScience AG, priority 2009, dated 2014)", "note": "Marks after values point to notes of the source that are not given here.", "data": [{"conditions": "pH 2.3", "values": [{"compound": "CN(C)c1nccc(-c2c[nH]nc2-c2ccc(Cl)s2)n1", "note": "[Example 79]", "log p": "1.69^[a]"}, {"compound": "CCC(C)n1cc(-c2ccnc(S(C)(=O)=O)n2)c(-c2ccc(Cl)s2)n1", "note": "(stereo not drawn) [Example 202]", "log p": "3.52^[a]"}, {"compound": "CC(C)Cn1cc(-c2cc[n+]([O-])c(N)c2)c(-c2ccc(Cl)s2)n1", "note": "[Example 77]", "log p": "2.39^[a]", "logP value of the minor isomer (in parenthesis in column Isomer ratio [d])": "(2.21)"}, {"compound": "Clc1ccc(-c2nn(Cc3ccccc3)cc2-c2ccncc2)s1", "note": "[Example 43]", "log p": "2.35^[a]"}, {"compound": "CC(C)n1cc(-c2ccnc(NC=O)n2)c(-c2ccc(Cl)s2)n1", "note": "[Example 144]", "log p": "3.81^[a]"}, {"compound": "CC(C)n1ncc(-c2ccncc2)c1-c1ccc(Cl)s1", "note": "[Example 39]", "log p": "1.63^[a];"}, {"compound": "CCCNc1nccc(-c2c[nH]nc2-c2ccc(Cl)s2)n1", "note": "[Example 65]", "log p": "1.75^[a]"}, {"compound": "Clc1nccc(-c2c[nH]nc2-c2ccc(Cl)s2)n1", "note": "[Example 81]", "log p": "2.64^[a]"}, {"compound": "CC(C)Cn1cc(-c2ccnc(N(Cc3ccccc3)C(=O)C(C)C)n2)c(-c2ccc(Cl)s2)n1", "note": "[Example 94]", "log p": "5.88^[a]"}, {"compound": "C=CCNc1nccc(-c2cn(C(C)C)nc2-c2ccc(Cl)s2)n1", "note": "[Example 184]", "log p": "3^[a]"}, {"compound": "CCC(C)n1cc(-c2ccnc(NCc3ccccc3)n2)c(-c2ccc(Cl)s2)n1", "note": "(stereo not drawn) [Example 200]", "log p": "4.27^[a]"}]}, {"conditions": "pH 2.7", "values": [{"compound": "Fc1cccc(Cn2cc(-c3ccncc3)c(-c3cc4ccsc4s3)n2)c1F", "note": "[Example 327]", "log p": "1.75^[b]"}, {"compound": "CC(C)=CCn1cc(-c2ccnc(NC(C)C)n2)c(-c2ccc(Cl)s2)n1", "note": "[Example 118]", "log p": "3.44^[b]", "logP value of the minor isomer (in parenthesis in column Isomer ratio [d])": "(3.00)"}, {"compound": "CC(C)Cn1cc(-c2ccncc2)c(-c2sccc2Cl)n1", "note": "[Example 159]", "log p": "1.62^[b]"}, {"compound": "CC(C)Nc1nccc(-c2cn(CC(F)(F)F)nc2-c2ccc(Cl)s2)n1", "note": "[Example 124]", "log p": "3.11^[b]"}, {"compound": "CC(=O)Nc1cc(-c2cn(C(C)C)nc2-c2ccc(Cl)s2)ccn1", "note": "[N-{4-[(3/5)-(5-Chloro-2-thienyl)-1-isopropyl-1H-pyrazol-4-yl]pyridin-2-yl}acetamide]", "logP (pH2.7)": 2.45, "logP (pH2.7), minor isomer": 2.22}, {"compound": "C=CCn1cc(-c2ccncc2)c(-c2sccc2Cl)n1", "note": "[Example 136]", "log p": "1.22^[b]", "logP value of the minor isomer": "(1.28)"}, {"compound": "CCC(CC)n1cc(-c2ccncc2)c(-c2sccc2Cl)n1", "note": "[Example 130]", "log p": "1.78^[b]", "logP value of the minor isomer": "(1.88)"}, {"compound": "CCn1cc(-c2ccnc(NS(=O)(=O)N(C)C)c2)c(-c2ccc(Cl)s2)n1", "note": "[Example 219]", "log p": "2.59^[b]"}, {"compound": "CC(C)n1cc(-c2ccnc(Cl)c2)c(-c2ccc(Cl)s2)n1", "note": "[Example 315]", "log p": "4.44^[b]"}, {"compound": "[O-][n+]1ccc(-c2c[nH]nc2-c2ccc(Cl)s2)cc1Cl", "note": "[2-Chloro-4-[3-(5-chloro-2-thienyl)-1H-pyrazol-4-yl]pyridine N oxyde]", "logP (pH2.7)": 1.57}, {"compound": "CCn1cc(-c2ccnc(NC(C)C)n2)c(-c2ccc(Cl)s2)n1", "note": "[Example 141]", "log p": "2.39^[b]", "logP value of the minor isomer": "(2.20)"}, {"compound": "CC(C)Cn1cc(-c2ccnc(N)c2)c(-c2ccc(Cl)s2)n1", "note": "[2-Amino-4-[1-isobutyl-(3/5)-(5-chloro-2-thienyl)-1H-pyrazol-4-yl]pyridine]", "logP (pH2.7)": 2.04, "logP (pH2.7), minor isomer": 1.93}, {"compound": "C#CCNc1cc(-c2cn(CC(C)C)nc2-c2ccc(Cl)s2)cc[n+]1[O-]", "note": "[2-Propargylamino-4-[1-isobutyl-3-(5-chloro-2-thienyl)-1H-pyrazol-4-yl]pyridine-N-oxyde]", "logP (pH2.7)": 2.70}, {"compound": "CC(C)Nc1nccc(-c2cn(C3CCCC3)nc2-c2ccc(Cl)s2)n1", "note": "[4-[(3/5)-(5-Chloro-2-thienyl)-1-cyclopentyl-1H-pyrazol-4-yl]-2-(isopropylamino)pyrimidine]", "logP (pH2.7)": 3.61, "logP (pH2.7), minor isomer": 3.33}, {"compound": "CC(n1ncc(-c2ccncn2)c1-c1ccc(Cl)s1)C(C)(C)C", "note": "(stereo not drawn) [Example 33]", "log p": "4.46^[b]"}, {"compound": "CC(C)n1ncc(-c2ccncc2)c1-c1ccc(Cl)s1", "note": "[Example 39]", "log p": "1.7^[b]"}, {"compound": "C=CC(C)n1cc(-c2ccncc2)c(-c2sccc2Cl)n1", "note": "(stereo not drawn) [Example 161]", "log p": "1.51^[b]"}, {"compound": "CCC(C)n1cc(-c2ccnc(Br)c2)c(-c2ccc(Cl)s2)n1", "note": "(stereo not drawn) [Example 100]", "log p": "5.03^[b]"}, {"compound": "CC(C)n1cc(-c2ccnc(N=C(c3ccccc3)c3ccccc3)c2)c(-c2ccc(Cl)s2)n1", "note": "[4-[(3/5)-(5-Chloro-2-thienyl)-1-isopropyl-1H-pyrazol-4-yl]-N-(diphenylmethylene)pyridin-2-amine]", "logP (pH2.7)": 4.46, "logP (pH2.7), minor isomer": 3.96}, {"compound": "Cc1[nH]nc(-c2ccc(Cl)s2)c1-c1ccncc1", "note": "[Example 68]", "log p": "1.07^[b]"}, {"compound": "CC(=O)c1ccc(-c2[nH]ncc2-c2ccncc2)s1", "note": "[Example 36]", "log p": "0.62^[b]"}, {"compound": "Clc1ccc(-c2n[nH]c(Br)c2-c2ccncc2)s1", "note": "[Example 44]", "log p": "1.4^[b]"}, {"compound": "C=CCn1cc(-c2ccncc2)c(-c2ccc(F)s2)n1", "note": "[Example 382]", "log p": "1.54^[b]", "logP value of the minor isomer": "(1.48)"}, {"compound": "CC(C)Cn1cc(-c2cc[n+]([O-])c(Cl)c2)c(-c2ccc(Cl)s2)n1", "note": "[2-Chloro-4-[1-isobutyl-3-(5-chloro-2-thienyl)-1H-pyrazol-4-yl]pyridine-N-oxyde]", "logP (pH2.7)": 2.82}, {"compound": "CC(=O)Nc1ccc(-c2nn(C)cc2-c2ccnc(N(C(C)=O)C(C)=O)c2)s1", "note": "[Example 290]", "log p": "1.39^[b]"}, {"compound": "CC1(Cn2cc(-c3ccncc3)c(-c3cc4ccsc4s3)n2)CC1(Cl)Cl", "note": "(stereo not drawn) [Example 326]", "log p": "2.62^[b]", "logP value of the minor isomer (between parenthesis, Isomer ratio column)": "(2.46)"}, {"compound": "CC(C)Nc1nccc(-c2cn(CCc3ccccc3)nc2-c2ccc(Cl)s2)n1", "note": "[Example 153]", "log p": "3.63^[b]"}, {"compound": "Fc1cccc(Cn2cc(-c3ccncc3)c(-c3ccc(Cl)s3)n2)c1F", "note": "[Example 325]", "log p": "2.39^[b]"}, {"compound": "CC(C)n1cc(-c2ccncc2)c(-c2ccc(C(F)(F)F)s2)n1", "note": "[4-[1-isopropyl-(3/5)-(5-trifluoromethyl-2-thienyl)-1H-pyrazol-4-yl]pyridine]", "logP (pH2.7)": 2.20, "logP (pH2.7), minor isomer": 2.08}, {"compound": "N-Butyl-5-[4-(pyridin-4-yl)-1H-pyrazol-3-yl]thiophene-2-carboxamide hydrochloride", "logP (pH2.7)": 1.47}, {"compound": "Cn1cc(-c2ccnc(NC(=O)c3cccs3)c2)c(-c2ccc(Cl)s2)n1", "note": "[Example 273]", "log p": "3.04^[b]"}, {"compound": "CC(C)Cn1cc(-c2ccncc2)c(-c2cc(Cl)cs2)n1", "note": "[Example 152]", "log p": "1.87^[b]"}, {"compound": "CC(C)(C)n1ncc(-c2ccncc2)c1-c1ccc(Cl)s1", "note": "[Example 10]", "log p": "1.95^[b]"}, {"compound": "CC(C)Cn1ncc(-c2cc[n+]([O-])c(Cl)c2)c1-c1ccc(Cl)s1", "note": "[2-Chloro-4-[1-isobutyl-5-(5-chloro-2-thienyl)-1H-pyrazol-4-yl]pyridine-N-oxyde]", "logP (pH2.7)": 3.06}, {"compound": "ClCCn1cc(-c2ccncc2)c(-c2sccc2Cl)n1", "note": "[Example 134]", "log p": "1.22^[b]", "logP value of the minor isomer": "(1.29)"}, {"compound": "CC(C)Cn1cc(-c2ccncc2)c(-c2cc3sccc3s2)n1", "note": "[4-[1-isobutyl-(3/5)-(3-thieno[3,2-b]thiophen-2-yl)-1H-pyrazol-4-yl]pyridine]", "logP (pH2.7)": 2.07, "logP (pH2.7), minor isomer": 2.02}, {"compound": "Cn1cc(-c2ccnc(N=C(c3ccccc3)c3ccccc3)c2)c(-c2ccc(Cl)s2)n1", "note": "[Example 309]", "log p": "4.67^[b]"}, {"compound": "CCC(C)n1ncc(-c2ccncn2)c1-c1ccc(Cl)s1", "note": "(stereo not drawn) [Example 31]", "log p": "3.34^[b]"}]}]}
